In this experiment the target is T1, human parathyroid cell Ca2+ receptor (hPCaR) (Homo sapiens, UniProt P41180).
T1 construct: expressed in transfected cells
T1 sequence (P41180 20-1078): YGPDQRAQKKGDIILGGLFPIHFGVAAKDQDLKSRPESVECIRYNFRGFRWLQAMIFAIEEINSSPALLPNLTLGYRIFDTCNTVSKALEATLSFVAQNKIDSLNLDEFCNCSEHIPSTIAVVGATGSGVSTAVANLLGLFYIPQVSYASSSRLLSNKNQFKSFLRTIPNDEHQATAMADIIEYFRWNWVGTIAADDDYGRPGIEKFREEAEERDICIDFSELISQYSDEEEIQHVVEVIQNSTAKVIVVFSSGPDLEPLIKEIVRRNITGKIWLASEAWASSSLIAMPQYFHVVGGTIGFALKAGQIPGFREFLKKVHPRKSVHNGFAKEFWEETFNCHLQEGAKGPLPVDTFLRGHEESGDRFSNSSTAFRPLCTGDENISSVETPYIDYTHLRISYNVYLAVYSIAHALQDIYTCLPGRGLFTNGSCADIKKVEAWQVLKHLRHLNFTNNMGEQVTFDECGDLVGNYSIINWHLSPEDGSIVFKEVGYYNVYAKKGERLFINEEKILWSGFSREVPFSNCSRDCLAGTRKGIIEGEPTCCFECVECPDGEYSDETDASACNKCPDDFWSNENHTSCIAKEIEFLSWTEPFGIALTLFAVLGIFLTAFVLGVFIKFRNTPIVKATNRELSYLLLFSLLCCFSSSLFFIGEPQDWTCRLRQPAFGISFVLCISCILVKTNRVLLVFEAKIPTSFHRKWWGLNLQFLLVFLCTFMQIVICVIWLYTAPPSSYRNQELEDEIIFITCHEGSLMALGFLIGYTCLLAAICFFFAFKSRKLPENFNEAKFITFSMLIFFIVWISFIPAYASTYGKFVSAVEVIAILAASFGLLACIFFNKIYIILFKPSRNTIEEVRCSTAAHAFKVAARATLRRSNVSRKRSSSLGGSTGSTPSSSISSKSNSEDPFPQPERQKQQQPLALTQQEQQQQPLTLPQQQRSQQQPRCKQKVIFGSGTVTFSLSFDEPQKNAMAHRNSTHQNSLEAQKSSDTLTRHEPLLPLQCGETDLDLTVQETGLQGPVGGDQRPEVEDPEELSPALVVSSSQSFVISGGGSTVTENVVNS
The experiment is described as follows: [Ca2+]i fluorescence assay in HEK 293 4.0-7 cells expressing hPCaR. It counts as cell-based. The settings on record: buffer with 1 mM CaCl2. As for the experimental part: The activities of the compounds of the present invention on calcium receptors were measured. In one embodiment, the measurement was performed in accordance with the method described in Example 4 of Nemeth et al., PCT/US95/13704 (International Publication No. WO96/12697) herein incorporated by reference.
A 4.0-kb NotI-HindIII fragment of the human parathyroid cell Ca^2+ receptor (hPCaR) cDNA was subcloned into the mammalian expression vector pCEP4 (Invitrogen) containing the hygromycin-resistant gene as a selectable marker. This plasmid was transfected into HEK 293 cells by calcium phosphate precipitation. Transfected cells were grown in Dulbecco's modified Eagle's medium containing 10% fetal bovine serum and hygromycin (200 μg/mL). Hygromycin-resistant colonies were subcloned and assayed for hPCaR mRNA by solution hybridization using a ^32P-labeled RNA probe complementary to the (4.0 kb) hPCaR sequence (Garrett, et al., J. Biol. Chem. 270, 12919-12925 (1995)). Clone 7 was used to assess the effects of compounds on [Ca^2+]i. This stably transfected cell line was termed HEK 293 4.0-7. For measurements of [Ca^2+]i, the cells were recovered from tissue culture flasks by brief treatment with Versene (Invitrogen; Containing 0.2 g/L EDTA.4Na in phosphate-buffered saline) and then seeded in collagen coated 384-well plates (BD Biosciences) at 20K cells per well in the growth media (same as above). Cells were grown in 37c TC incubator overnight. Then, the media was discarded and cells were loaded with 1× dye from Ca^2+ Assay Kit I (BD Biosciences) in parathyroid cell buffer (126 mM NaCl, 4 mM KCl, 1 mM MgSO4, 0.7 mM K2HPO4/KH2PO4, 20 mM HEPES.NaOH (pH 7.45)) containing 0.5% BSA and 1 mM CaCl2. Cells were loaded at room temperature for 90 minutes. Each test compound was added to the cells and the fluorescence was recorded by using excitation and emission wavelengths of 485 and 530 nm, respectively.

The values that follow come from patent publication US20080125424A1, “Derivatives of urea and related diamines, methods for their manufacture, and uses therefor” (priority 2006, published 2008).

A word on the EC50: it is the concentration that produces a half-maximal response. A higher EC50 goes with weaker potency.

Regarding `O=C(CCCN(CCC(c1ccccc1)c1ccccc1)C(=O)Nc1nc2ccccc2s1)NC1CCNCC1` [Example 75, 3-(benzo[d]thiazol-2-yl)-1-(3,3-diphenylpropyl)-1-(4-oxo-4-(piperidin-4-ylamino)butyl)urea], the half-maximal effective concentration (EC50) was < 100 nM.

In the case of `O=C(NCCCCN(CCC(c1ccccc1)c1ccccc1)C(=O)Nc1nc2ccccc2s1)C1CCNCC1` [Example 127, 3-(benzo[d]thiazol-2-yl)-1-(3,3-diphenylpropyl)-1-(4-(piperidine-4-carboxamido)butyl)urea], the EC50 was < 100 nM.

Take `O=C(CCCN(CCC(c1ccccc1)c1ccccc1)C(=O)Nc1nc(-c2ccccc2)cs1)N[C@H]1CCCNC1` [Example 78, (S)-1-(3,3-diphenylpropyl)-1-(4-oxo-4-(piperidin-3-ylamino)butyl)-3-(4-phenylthiazol-2-yl)urea]: the concentration giving a half-maximal response (EC50) is < 100 nM.

`O=C(CCCN(CCC(c1ccccc1)c1ccccc1)C(=O)Nc1nc2ccccc2s1)NCc1ccccc1` [Example 86, 3-(benzo[d]thiazol-2-yl)-1-(4-(benzylamino)-4-oxobutyl)-1-(3,3-diphenylpropyl)urea]: the 50% effective concentration (EC50) is < 100 nM.

The compound `COC(CNCCN(CCC(c1ccccc1)c1ccccc1)C(=O)Nc1nc2ccccc2s1)OC` [Example 153, 3-Benzothiazol-2-yl-1-[2-(2,2-dimethoxy-ethylamino)-ethyl]-1-(3,3-diphenyl-propyl)urea] returned an EC50 of 100 to 1000 nM.

With `O=C(NCCN(CCC(c1ccccc1)c1ccccc1)C(=O)Nc1nc2ccccc2s1)C1CCCNC1` (stereo not shown) [Example 129, 3-(benzo[d]thiazol-2-yl)-1-(3,3-diphenylpropyl)-1-(2-(piperidine-3-carboxamido)ethyl)urea], the concentration for a half-maximal effect (EC50) was < 100 nM.

The compound `N#Cc1ccc(-c2nc(NC(=O)N(CCCC(=O)O)CCC(c3ccccc3)c3ccccc3)sc2Cl)cc1` [Example 92, 4-(3-(5-chloro-4-(4-cyanophenyl)thiazol-2-yl)-1-(3,3-diphenylpropyl)ureido)butanoic acid] came in with an EC50 of 100 to 1000 nM.

Regarding `CS(=O)(=O)Nc1ccc(-c2nc(NC(=O)N(CCCC(=O)O)CCC(c3ccccc3)c3ccccc3)sc2Cl)cc1` [Example 73, 4-(3-(5-chloro-4-(4-(methylsulfonamido)phenyl)thiazol-2-yl)-1-(3,3-diphenylpropyl)ureido)butanoic acid], the EC50 is < 100 nM.

Turning to `CS(=O)(=O)Nc1ccc(-c2nc(NC(=O)N(CCN)CCC(c3ccccc3)c3ccccc3)sc2Cl)cc1` [Example 135, 1-(2-aminoethyl)-3-(5-chloro-4-(4-(methylsulfonamido)phenyl)thiazol-2-yl)-1-(3,3-diphenylpropyl)urea], the EC50 was < 100 nM.

For the compound `O=C(O)CCCN(CCC(c1ccccc1)c1ccccc1)C(=O)Nc1nc(-c2ccccc2)c(Cl)s1` [Example 83, 4-(3-(5-chloro-4-phenylthiazol-2-yl)-1-(3,3-diphenylpropyl)ureido)butanoic acid], the EC50 is < 100 nM.

Take `CS(=O)(=O)Nc1ccc(-c2nc(NC(=O)N(CCCO)CCC(c3ccccc3)c3ccccc3)sc2Cl)cc1` [Example 134, 3-(5-chloro-4-(4-(methylsulfonamido)phenyl)thiazol-2-yl)-1-(3,3-diphenylpropyl)-1-(3-hydroxypropyl)urea]: the EC50 is < 100 nM.

Turning to `CS(=O)(=O)Nc1ccc(-c2csc(NC(=O)N(CCCC(=O)NC3CCNCC3)CCC(c3ccccc3)c3ccccc3)n2)cc1` [Example 70, 1-(3,3-diphenylpropyl)-3-(4-(4-(methylsulfonamido)phenyl)thiazol-2-yl)-1-(4-oxo-4-(piperidin-4-ylamino)butyl)urea], the concentration for a half-maximal effect (EC50) was < 100 nM.

The compound `CS(=O)(=O)c1ccc(-c2csc(NC(=O)N(CCC(=O)O)CCC(c3ccccc3)c3ccccc3)n2)cc1` [Example 119, 3-(1-(3,3-diphenylpropyl)-3-(4-(4-(methylsulfonyl)phenyl)thiazol-2-yl)ureido)propanoic acid] displayed an EC50 of 100 to 1000 nM.

Take `N#Cc1ccc(S(=O)(=O)NCCN(CCC(c2ccccc2)c2ccccc2)C(=O)Nc2nc3ccccc3s2)cc1` [Example 169, N-{2-[3-Benzothiazol-2-yl-1-(3,3-diphenyl-propyl)-ureido]-ethyl}-4-cyanobenzenesulfonamide]: the EC50 is 1000 to 5000 nM.

`O=C(Nc1nc2ccccc2s1)N(CCNC1CCSCC1)CCC(c1ccccc1)c1ccccc1` [Example 155, 3-Benzothiazol-2-yl-1-(3,3-diphenyl-propyl)-1-[2-(tetrahydro-thiopyran-4-ylamino)ethyl]-urea]: the EC50 lay in the range of 1000 to 5000 nM.

Turning to `NC(=O)CCCN(CCC(c1ccccc1)c1ccccc1)C(=O)Nc1nc(-c2ccccc2)c(Cl)s1` [Example 81, 1-(4-amino-4-oxobutyl)-3-(5-chloro-4-phenylthiazol-2-yl)-1-(3,3-diphenylpropyl)urea], the concentration giving a half-maximal response (EC50) is < 100 nM.

Consider `O=C(CCN(CCC(c1ccccc1)c1ccccc1)C(=O)Nc1nc2ccccc2s1)N1CCOCC1` [Example 103, 3-(benzo[d]thiazol-2-yl)-1-(3,3-diphenylpropyl)-1-(3-morpholino-3-oxopropyl)urea], for which the concentration giving a half-maximal response (EC50) was in the range of 100 to 1000 nM.

For the compound `O=C(O)CCCN(CCC(c1ccccc1)c1ccccc1)C(=O)Nc1nc(-c2ccccc2)cs1` [Example 111, 4-(1-(3,3-diphenylpropyl)-3-(4-phenylthiazol-2-yl)ureido)butanoic acid], the EC50 was 100 to 1000 nM.

`CS(=O)(=O)Nc1ccc(-c2nc(NC(=O)NCCC(c3ccccc3)c3ccccc3)sc2Cl)cc1` [Example 176, 1-(5-chloro-4-(4-(methylsulfonamido)phenyl)thiazol-2-yl)-3-(3,3-diphenylpropyl)urea] returned an EC50 of 100 to 1000 nM.

With `O=C(O)CCCN(CCC(c1ccccc1)c1ccccc1)C(=O)Nc1nc2ccccc2s1` [Example 104, 4-(3-(benzo[d]thiazol-2-yl)-1-(3,3-diphenylpropyl)ureido)butanoic acid], the concentration for a half-maximal effect (EC50) lay within 100 to 1000 nM.

For `COc1ccc(CNCCN(CCC(c2ccccc2)c2ccccc2)C(=O)Nc2nc3ccccc3s2)cn1` [Example 154, 3-Benzothiazol-2-yl-1-(3,3-diphenyl-propyl)-1-{2-[(6-methoxy-pyridin-3-ylmethyl)amino]-ethyl}-urea], the EC50 lay within 100 to 1000 nM.

For the compound `CC(C)(C)OC(=O)N1CCC(NCCN(CCC(c2ccccc2)c2ccccc2)C(=O)Nc2nc3ccccc3s2)CC1` [Example 159, 4-{2-[3-Benzothiazol-2-yl-1-(3,3-diphenyl-propyl)-ureido]-ethylamino}-piperidine-1-carboxylic acid tert-butyl ester], the EC50 fell in the range of 100 to 1000 nM.

The compound `C[C@@H]1CN(C(=O)CCCN(CCC(c2ccccc2)c2ccccc2)C(=O)Nc2nc(-c3ccccc3)cs2)CCN1` [Example 99, (R)-1-(3,3-diphenylpropyl)-1-(4-(3-methylpiperazin-1-yl)-4-oxobutyl)-3-(4-phenylthiazol-2-yl)urea] showed an EC50 of 100 to 1000 nM.

`O=C(O)CNCCN(CCC(c1ccccc1)c1ccccc1)C(=O)Nc1nc2ccccc2s1` [Example 161, {2-[3-Benzothiazol-2-yl-1-(3,3-diphenyl-propyl)-ureido]-ethylamino}-acetic acid]: the EC50 was 100 to 1000 nM.

As to `O=C(CCCN(CCC(c1ccccc1)c1ccccc1)C(=O)Nc1nc2ccccc2s1)N[C@H]1CCCNC1` [Example 74, (S)-3-(benzo[d]thiazol-2-yl)-1-(3,3-diphenylpropyl)-1-(4-oxo-4-(piperidin-3-ylamino)butyl)urea], the EC50 is < 100 nM.
